One assay concerns the target ZIPK(h) (Homo sapiens, UniProt O43293). The assay is described as follows: Protein kinase inhibition assay. The note with it: read-out: percent residual activity of ZIPK(h). It is filed as biochemical. The procedure: (§1) Certain compounds were tested for activity in protein kinase inhibition assays. All substrates were dissolved and diluted to working stocks in de-ionized water, apart from histone H1 (10× working stock in 20 mM MOPS pH 7.0), PDKtide (10× working stock in 50 mM Tris pH 7.0) ATF2 (which is typically stored at a 20× working stock in 50 mM Tris pH 7.5, 150 mM NaCl, 0.1 mM EGTA, 0.03% Brij-35, 50% glycerol, 1 mM benzamidine, 0.2 mM PMSF and 0.1% R-mercaptoethanol), KKLNRTLSFAEPG (SEQ ID NO:203) and RRRLSFAEPG (SEQ ID NO:204) (50 mM HEPES pH 7.4) and GGEEEEYFELVKKKK (SEQ ID NO:205) (20 mM MOPS pH 7.0). All kinases were pre-diluted to a 10× working concentration prior to addition into the assay. The composition of the dilution buffer for each kinase is detailed below.
(§2) In a final reaction volume of 25 μl, ZIPK (h) (5-10 mU) is incubated with 8 mM MOPS pH 7.0, 0.2 mM EDTA, 250 μM KKLNRTLSFAEPG (SEQ ID NO:203), 10 mM MgAcetate and [gamma-33P-ATP] (specific activity approx. 500 cpm/pmol, concentration as required). The reaction is initiated by the addition of the MgATP mix. After incubation for 40 minutes at room temperature, the reaction is stopped by the addition of 5 μl of a 3% phosphoric acid solution. 10 μl of the reaction is then spotted onto a P30 filtermat and washed three times for 5 minutes in 75 mM phosphoric acid and once in methanol prior to drying and scintillation counting.

The next assay addresses FGFR1(h) (Homo sapiens, UniProt P11362). Briefly: Protein kinase inhibition assay. It is filed as biochemical. The settings on record: read-out: percent residual activity of FGFR1(h). The protocol: as §1
as §2, with “FGFR1” for “ZIPK”, “KKKSPGEYVNIEFG” for “KKLNRTLSFAEPG”, “NO:207),” for “NO:203),”, “[y-33P-ATP]” for “[gamma-33P-ATP]”, “MGATP” for “MgATP”

The target of the next assay is MAPK2(m) (Mus musculus, UniProt P63085). Briefly: Protein kinase inhibition assay. It is filed as biochemical. The settings on record: read-out: percent residual activity of MAPK2(m). The procedure:
as §1
as §2, with “μl, MAPK2 (m)” for “μl, ZIPK (h)”, “with 25” for “with 8”, “mM Tris” for “mM MOPS”, “pH 7.5, 0.02” for “pH 7.0, 0.2”, “mM EGTA, 0.33 mg/ml myelin basic protein,” for “mM EDTA, 250 μM KKLNRTLSFAEPG (SEQ ID NO:203),”, “10 μpl” for “10 μl”

For assay [1], the target named is T1, nucleolin/HP pre-rRNA region (Homo sapiens, UniProt P19338).
T1 construct: without the N-terminal acidic stretches domain
T1 sequence (P19338 284-710 limits assumed): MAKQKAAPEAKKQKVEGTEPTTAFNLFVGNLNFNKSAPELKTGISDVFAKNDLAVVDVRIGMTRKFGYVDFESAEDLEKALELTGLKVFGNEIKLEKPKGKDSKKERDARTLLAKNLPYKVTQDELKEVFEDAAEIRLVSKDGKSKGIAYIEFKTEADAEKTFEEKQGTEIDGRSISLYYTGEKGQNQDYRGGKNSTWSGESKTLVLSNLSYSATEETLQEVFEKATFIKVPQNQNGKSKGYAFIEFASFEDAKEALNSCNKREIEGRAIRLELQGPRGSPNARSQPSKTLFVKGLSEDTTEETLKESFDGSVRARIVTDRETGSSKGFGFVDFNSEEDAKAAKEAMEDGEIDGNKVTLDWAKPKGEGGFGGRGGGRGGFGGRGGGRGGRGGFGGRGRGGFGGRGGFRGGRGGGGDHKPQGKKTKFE
The assay is described as follows: EMSA, nucleolin/HP ligand interaction. It is filed as binding. The note with it: nucleolin ~250 nM, 32P-labeled ligand 10 or 250 nM, 30 minutes (FIG. 1, FIG. 2). The protocol: The following assays assessed effects of compounds on interactions between nucleolin and nucleic acid ligands capable of forming quadruplex (QP) and hairpin (HP) secondary structures. Nucleic acid ligands tested were a cMyc QP DNA having nucleotide sequence 5′-[…]-3′ (SEQ ID NO: 176) and a HP pre-rRNA region to which nucleolin binds, having the sequence 5′-[…]-3′ (SEQ ID NO: 177). In the assays, recombinant nucleolin (˜250 nM), which was fused to maltose binding protein and had the sequence under accession number NM_005381 without the N-terminal acidic stretches domain, was incubated with each of the two ^32P-labeled nucleic acid ligands (10 or 250 nM). Nucleolin and the nucleic acid ligand were incubated in the presence or absence of a test compound of Formula A-1, B-1, C-6 or C-7 in an incubation buffer (12.5 mM Tris, pH 7.6, 60 mM KCl, 1 mM MgCl2, 0.1 mM EDTA, 1 mM DTT, 5% glycerol, 0.1 mg/ml BSA) for 30 minutes at room temperature. Structures for A-1 and B-1 are shown above and structures for C-6 and C-7 are shown hereafter: [drawing 17] The resulting complexes were separated on a 6% DNA retardation gel using 0.5× TBE with 20 mM KCl as a running buffer (i.e., electrophoresis mobility shift assay (EMSA)).
In general terms: A gel shift assay detects complexes by their altered migration in electrophoresis.

The target in a further assay is ALK(h) (Homo sapiens, UniProt Q9UM73). The assay is described as follows: Protein kinase inhibition assay. The note with it: read-out: percent residual activity of ALK(h). It is filed as biochemical. The procedure: as §1
ALK(h), sequence (Q9UM73 19-1620): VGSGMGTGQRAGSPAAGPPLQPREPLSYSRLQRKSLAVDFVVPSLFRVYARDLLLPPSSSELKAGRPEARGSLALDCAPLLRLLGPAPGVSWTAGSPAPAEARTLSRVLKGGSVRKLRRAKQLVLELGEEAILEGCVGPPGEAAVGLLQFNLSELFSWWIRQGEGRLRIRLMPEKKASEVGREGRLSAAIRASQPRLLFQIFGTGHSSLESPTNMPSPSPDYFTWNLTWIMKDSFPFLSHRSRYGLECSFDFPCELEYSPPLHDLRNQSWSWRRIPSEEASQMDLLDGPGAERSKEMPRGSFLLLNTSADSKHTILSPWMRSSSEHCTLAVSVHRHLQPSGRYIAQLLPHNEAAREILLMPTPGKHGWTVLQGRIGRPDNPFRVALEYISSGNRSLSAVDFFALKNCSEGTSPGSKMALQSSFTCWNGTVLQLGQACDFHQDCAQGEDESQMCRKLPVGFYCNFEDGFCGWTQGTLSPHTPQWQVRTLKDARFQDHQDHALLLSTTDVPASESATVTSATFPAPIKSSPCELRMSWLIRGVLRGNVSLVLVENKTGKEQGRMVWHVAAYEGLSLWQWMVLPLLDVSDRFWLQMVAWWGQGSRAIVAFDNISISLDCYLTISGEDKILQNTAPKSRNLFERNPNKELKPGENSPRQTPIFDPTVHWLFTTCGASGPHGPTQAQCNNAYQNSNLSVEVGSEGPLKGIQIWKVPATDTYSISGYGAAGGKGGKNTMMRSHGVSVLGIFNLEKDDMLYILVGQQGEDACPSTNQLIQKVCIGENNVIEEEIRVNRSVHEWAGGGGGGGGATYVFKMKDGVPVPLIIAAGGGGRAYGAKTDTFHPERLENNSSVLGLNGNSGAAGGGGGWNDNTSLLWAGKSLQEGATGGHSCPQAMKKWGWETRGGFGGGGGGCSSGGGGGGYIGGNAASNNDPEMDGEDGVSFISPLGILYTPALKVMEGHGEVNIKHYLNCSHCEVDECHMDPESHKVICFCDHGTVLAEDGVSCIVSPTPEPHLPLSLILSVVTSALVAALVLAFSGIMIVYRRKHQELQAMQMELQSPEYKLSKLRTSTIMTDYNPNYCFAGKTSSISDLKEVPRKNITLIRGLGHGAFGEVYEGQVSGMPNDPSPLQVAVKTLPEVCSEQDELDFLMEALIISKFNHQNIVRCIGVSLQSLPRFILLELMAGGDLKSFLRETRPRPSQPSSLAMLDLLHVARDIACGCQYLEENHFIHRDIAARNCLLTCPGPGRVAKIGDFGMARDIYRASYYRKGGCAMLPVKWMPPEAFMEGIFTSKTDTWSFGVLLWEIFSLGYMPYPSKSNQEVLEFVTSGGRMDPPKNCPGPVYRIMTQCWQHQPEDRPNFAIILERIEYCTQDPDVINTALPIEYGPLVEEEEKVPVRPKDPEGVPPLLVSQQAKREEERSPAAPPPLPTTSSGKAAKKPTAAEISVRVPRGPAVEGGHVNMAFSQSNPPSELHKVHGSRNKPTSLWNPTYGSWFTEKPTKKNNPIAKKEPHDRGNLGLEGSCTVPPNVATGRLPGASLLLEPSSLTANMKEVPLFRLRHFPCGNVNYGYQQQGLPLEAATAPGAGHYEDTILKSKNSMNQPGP
as §2, with “ALK” for “ZIPK”, “KKKSPGEYVNIEFG” for “KKLNRTLSFAEPG”, “NO:207),” for “NO:203),”, “[y -33P-ATP]” for “[gamma-33P-ATP]”

In a further assay the target is JAK2(h) (Homo sapiens, UniProt O60674). The assay is described as follows: Protein kinase inhibition assay. It is filed as biochemical. The note with it: read-out: percent residual activity of JAK2(h). The protocol:
as §1
as §2, with “JAK2” for “ZIPK”, “100” for “250”, “KKLNRTLSFAEPG” left out, “NO:217),” for “NO:203),”

SMILES strings stand for the structures.

ZIPK(h), sequence (O43293 whole entry): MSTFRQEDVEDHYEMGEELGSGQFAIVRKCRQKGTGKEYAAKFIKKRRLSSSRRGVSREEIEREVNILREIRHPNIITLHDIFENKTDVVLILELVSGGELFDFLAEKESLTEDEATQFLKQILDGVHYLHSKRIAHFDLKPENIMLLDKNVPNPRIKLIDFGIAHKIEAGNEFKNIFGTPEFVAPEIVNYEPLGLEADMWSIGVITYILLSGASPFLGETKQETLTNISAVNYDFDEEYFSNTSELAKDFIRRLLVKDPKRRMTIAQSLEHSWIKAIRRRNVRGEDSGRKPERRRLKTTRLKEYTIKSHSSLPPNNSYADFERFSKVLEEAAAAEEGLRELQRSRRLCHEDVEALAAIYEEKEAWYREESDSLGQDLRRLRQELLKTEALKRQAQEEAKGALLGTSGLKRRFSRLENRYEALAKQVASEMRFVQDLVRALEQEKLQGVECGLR
MAPK2(m), sequence (P63085 whole entry): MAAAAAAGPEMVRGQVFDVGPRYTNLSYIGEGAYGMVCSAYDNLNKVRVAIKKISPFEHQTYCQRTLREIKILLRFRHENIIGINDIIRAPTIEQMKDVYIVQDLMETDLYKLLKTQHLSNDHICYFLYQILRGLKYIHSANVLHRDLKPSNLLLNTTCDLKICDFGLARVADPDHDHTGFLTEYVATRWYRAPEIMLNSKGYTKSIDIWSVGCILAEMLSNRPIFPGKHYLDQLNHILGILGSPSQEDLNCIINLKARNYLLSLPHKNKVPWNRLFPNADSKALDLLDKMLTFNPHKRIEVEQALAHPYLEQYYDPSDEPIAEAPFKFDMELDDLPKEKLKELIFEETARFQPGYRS
FGFR1(h), sequence (P11362 22-822): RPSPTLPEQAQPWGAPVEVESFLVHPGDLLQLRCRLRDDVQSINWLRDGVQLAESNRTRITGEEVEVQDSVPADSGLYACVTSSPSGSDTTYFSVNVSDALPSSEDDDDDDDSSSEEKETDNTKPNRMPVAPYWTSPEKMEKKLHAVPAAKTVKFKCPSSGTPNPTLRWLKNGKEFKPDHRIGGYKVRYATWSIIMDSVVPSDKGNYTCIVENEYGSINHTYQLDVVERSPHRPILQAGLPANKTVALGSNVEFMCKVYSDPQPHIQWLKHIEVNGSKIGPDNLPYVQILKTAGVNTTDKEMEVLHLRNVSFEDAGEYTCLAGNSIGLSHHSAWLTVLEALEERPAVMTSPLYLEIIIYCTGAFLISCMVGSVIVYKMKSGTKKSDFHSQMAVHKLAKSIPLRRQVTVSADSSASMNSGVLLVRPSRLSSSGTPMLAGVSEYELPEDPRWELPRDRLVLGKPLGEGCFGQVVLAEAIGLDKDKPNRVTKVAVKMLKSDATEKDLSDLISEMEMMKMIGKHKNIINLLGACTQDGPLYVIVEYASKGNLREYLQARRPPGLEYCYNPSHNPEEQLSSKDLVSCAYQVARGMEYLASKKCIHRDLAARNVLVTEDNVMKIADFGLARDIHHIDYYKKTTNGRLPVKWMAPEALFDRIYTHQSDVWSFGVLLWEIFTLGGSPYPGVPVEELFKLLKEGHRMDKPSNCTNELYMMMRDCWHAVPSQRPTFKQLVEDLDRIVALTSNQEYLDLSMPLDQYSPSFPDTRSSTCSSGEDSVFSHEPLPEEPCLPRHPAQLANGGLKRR
JAK2(h), sequence (O60674 whole entry): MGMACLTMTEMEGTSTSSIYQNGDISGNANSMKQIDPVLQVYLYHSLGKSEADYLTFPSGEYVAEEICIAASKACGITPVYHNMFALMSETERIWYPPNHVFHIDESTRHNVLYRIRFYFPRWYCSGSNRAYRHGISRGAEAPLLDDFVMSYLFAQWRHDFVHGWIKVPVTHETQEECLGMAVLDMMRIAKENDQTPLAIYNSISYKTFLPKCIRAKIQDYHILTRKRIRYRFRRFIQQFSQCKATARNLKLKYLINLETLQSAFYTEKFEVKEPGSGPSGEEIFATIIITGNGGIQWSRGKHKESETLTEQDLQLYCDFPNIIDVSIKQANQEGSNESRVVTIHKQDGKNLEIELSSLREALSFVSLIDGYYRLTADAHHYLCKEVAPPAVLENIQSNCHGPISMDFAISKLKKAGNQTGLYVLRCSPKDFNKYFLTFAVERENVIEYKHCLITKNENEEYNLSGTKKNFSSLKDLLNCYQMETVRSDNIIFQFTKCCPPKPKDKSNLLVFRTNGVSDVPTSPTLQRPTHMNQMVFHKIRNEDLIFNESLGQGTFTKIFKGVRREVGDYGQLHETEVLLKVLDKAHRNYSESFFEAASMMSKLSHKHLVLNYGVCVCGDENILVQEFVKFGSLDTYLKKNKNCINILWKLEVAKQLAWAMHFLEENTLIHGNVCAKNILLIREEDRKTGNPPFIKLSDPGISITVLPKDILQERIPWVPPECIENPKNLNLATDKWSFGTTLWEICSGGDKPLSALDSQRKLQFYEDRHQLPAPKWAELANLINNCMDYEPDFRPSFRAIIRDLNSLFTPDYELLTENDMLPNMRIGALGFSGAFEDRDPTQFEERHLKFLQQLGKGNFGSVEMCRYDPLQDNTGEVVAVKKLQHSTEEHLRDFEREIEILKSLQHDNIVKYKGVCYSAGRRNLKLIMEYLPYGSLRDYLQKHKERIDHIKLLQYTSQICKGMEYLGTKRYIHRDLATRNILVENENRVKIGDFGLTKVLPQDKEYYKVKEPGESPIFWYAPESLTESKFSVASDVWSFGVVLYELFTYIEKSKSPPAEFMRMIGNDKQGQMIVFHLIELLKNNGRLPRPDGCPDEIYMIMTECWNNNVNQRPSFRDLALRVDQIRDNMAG

Take `CN1CCCC1CCNC(=O)c1cn2c3c(c(N4CCC(c5cnccn5)C4)c(F)cc3c1=O)Oc1cc3ccccc3cc1-2` (stereo not drawn) [Compound A-1]: the remaining activity at 2.5 µM at ZIPK(h) is 27%; at FGFR1(h), 84%; at MAPK2(m), 95%; at ALK(h), 69%; on JAK2(h), 105%. In assay [1], the “interference with the nucleolin/HP ligand interaction” value was “did not significantly interfere with the nucleolin/HP ligand interaction”.

As to `CC(=O)N1CCN(c2ccc3c(=O)c(C(=O)NCCN4CCCC4)c4n(C)c5ccccc5n4c3n2)CC1` [Compound B-1], the remaining activity at 2.5 µM on ZIPK(h) stood at 116%; at FGFR1(h), 118%; on MAPK2(m), 102%; at ALK(h), 97%; on JAK2(h), 116%. Also, in assay [1], the “interference with the nucleolin/HP ligand interaction” value was “did not significantly interfere with the nucleolin/HP interaction”.

The record behind these values is patent US20070117770A1, “Human ribosomal DNA (rDNA) and ribosomal RNA (rRNA) nucleic acids and uses thereof” (Cylene Pharmaceuticals, Inc., priority 2005, published 2007).
